In test [1] the target is T1, recombinant protein AR activation function-1 (AF1) (Homo sapiens, UniProt P10275).
T1 sequence (P10275 144-486 limits assumed): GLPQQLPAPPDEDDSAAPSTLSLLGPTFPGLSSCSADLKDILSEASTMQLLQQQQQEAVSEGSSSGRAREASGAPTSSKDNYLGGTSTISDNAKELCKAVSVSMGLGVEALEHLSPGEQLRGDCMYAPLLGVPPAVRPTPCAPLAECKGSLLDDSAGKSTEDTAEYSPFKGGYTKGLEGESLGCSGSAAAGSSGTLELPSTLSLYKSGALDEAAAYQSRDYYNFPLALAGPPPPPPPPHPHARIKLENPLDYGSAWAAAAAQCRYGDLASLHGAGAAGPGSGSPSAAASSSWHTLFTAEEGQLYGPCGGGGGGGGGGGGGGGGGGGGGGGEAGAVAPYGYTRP
The test is described as follows: Covalent binding to recombinant AR AF1 evaluated by SDS-PAGE. On the procedure: Covalent binding experiments of 1d (also referred to as ^123I-EPI) to recombinant protein AR activation function-1 (AF1) was evaluated by SDS-PAGE (FIG. 15). After 6 h incubation at room temperature, 1d bound to the recombinant protein AR AF1. Less binding of 1d was observed when AR AF1 was pre-incubated with cold Z which is thought to bind to the same site as 1d. The SDS-PAGE gel was stained with Coomassie blue for loading control of the amount of AF1 protein.

A further test addresses T2, AR (Homo sapiens, UniProt P10275, T878A).
T2 construct: LNCaP cells with endogenous AR; endogenous in cells; host or cells: LNCaP
T2 sequence (P10275 1-920 T878A): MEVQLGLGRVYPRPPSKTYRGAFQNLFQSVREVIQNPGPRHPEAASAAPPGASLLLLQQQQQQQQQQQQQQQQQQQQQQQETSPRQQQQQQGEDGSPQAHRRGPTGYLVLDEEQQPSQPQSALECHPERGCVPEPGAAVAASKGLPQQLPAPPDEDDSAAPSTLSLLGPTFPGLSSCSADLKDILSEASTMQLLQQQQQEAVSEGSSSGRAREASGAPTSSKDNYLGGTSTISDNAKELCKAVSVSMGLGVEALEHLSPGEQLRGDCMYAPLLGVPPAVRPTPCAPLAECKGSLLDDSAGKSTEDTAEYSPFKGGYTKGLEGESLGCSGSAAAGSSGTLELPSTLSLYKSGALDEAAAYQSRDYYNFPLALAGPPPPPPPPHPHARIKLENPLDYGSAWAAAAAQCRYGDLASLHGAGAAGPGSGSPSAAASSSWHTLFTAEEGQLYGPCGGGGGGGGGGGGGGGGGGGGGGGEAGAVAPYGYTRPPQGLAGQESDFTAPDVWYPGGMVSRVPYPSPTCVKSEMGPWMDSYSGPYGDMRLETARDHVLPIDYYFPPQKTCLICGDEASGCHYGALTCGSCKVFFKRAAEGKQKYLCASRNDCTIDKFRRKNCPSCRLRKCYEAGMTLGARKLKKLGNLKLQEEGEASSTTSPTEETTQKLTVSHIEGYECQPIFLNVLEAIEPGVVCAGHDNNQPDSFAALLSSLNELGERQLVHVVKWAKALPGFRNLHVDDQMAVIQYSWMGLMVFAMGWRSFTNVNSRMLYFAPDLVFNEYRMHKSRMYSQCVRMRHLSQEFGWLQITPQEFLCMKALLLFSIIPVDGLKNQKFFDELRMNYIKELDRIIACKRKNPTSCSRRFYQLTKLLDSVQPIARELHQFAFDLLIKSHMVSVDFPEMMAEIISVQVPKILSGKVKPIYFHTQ
The test is described as follows: PSA(6.1 kb)-luciferase reporter assay in LNCaP cells (androgen-induced AR transcriptional activity). The format is cell-based. Particulars: LNCaP, PSA(6.1 kb)-luciferase, 1 h pre-treatment, R1881 1 nM 24 h. On the procedure:
The PSA-luciferase (6.1 kb) reporter contains functional AREs to which AR binds in response to androgen to induce luciferase activity. LNCaP cells were transfected with the PSA(6.1 kb)-luciferase reporter for 24 h, and then treated with indicated concentration of 8d (also referred as EPI-iodide or iodinated EPI) with synthetic androgen, R1881 (1 nM) for 24 h. After 24 h of incubation with R1881, the cells were harvested, and relative luciferase activities were determined (FIG. 1A). To determine the IC50, treatments were normalized to the predicted maximal activity induction (in the absence of test compounds, vehicle only) (FIG. 1B).
To measure effect on AR, after the LNCaP cells were transfected with the PSA(6.1 kb)-luciferase reporter for 24 h, they were then treated with DMSO, 5 μM MDV3100, 25 μM Z (also referred to as EPI-002 or EPI), or 1.9 μM 8d with or without 1 nM R1881 for 24 h (FIG. 2A).
LNCaP cells were transiently transfected with PSA (6.1 kb)-luciferase for 24 h prior to pre-treatment with compounds of the invention (e.g., compounds 9d, 10d, 11d) ranging in concentration from 62.5 ng/ml to 1.5 ug/ml for 1 hour before the addition of vehicle, or synthetic androgen, R1881 (1 nM) to induce luciferase production. After 24 h of incubation with R1881, the cells were harvested, and relative luciferase activities were determined. To determine the IC50, treatments were normalized to the predicted maximal activity induction (in the absence of test compounds, vehicle only) (FIG. 1B).
(In general: Reporter assays use an easily measured gene product as a stand-in for the process of interest.)

Where [2] appears, read: Trial 1, read-out: IC50 Trial 1.
[3] abbreviates: Trial 2, read-out: IC50 Trial 2.
Setting [4] is: Trial 3, read-out: IC50 Trial 3.
Setting [5] is: Trial 4, read-out: IC50 Trial 4.
The mark [6] stands for this setting: average of 4 trials, read-out: IC50 Average.

Molecules are shown by their SMILES. Read-outs that look alike come from different tables or passages of the source.

Turning to `CC(C)(c1ccc(OC[C@H](O)CO)cc1)c1ccc(OC[C@H](O)CCl)c([123I])c1` [Compound 1d, (R)-3-(4-(2-(4-((S)-3-chloro-2-hydroxypropoxy)-3- ^123iodophenyl)propan-2-yl)phenoxy)propane-1,2-diol], the “covalent binding to recombinant protein AR AF1” value in test [1] (6 h incubation at room temperature) is “bound”. Besides, the “binding to AR AF1 after pre-incubation with cold Z” value in test [1] (AR AF1 pre-incubated with cold Z) is “Less binding”.

`CC(C)(c1ccc(OC[C@H](O)CO)cc1)c1ccc(OC[C@H](O)CCl)c(Br)c1` [Compound 9d, (R)-3-(4-(2-(3-bromo-4-((S)-3-chloro-2-hydroxypropoxy)phenyl)propan-2-yl)phenoxy)propane-1,2-diol]: the IC50 (commonly the concentration that inhibits the measured activity by half) is 2070 nM at AR (setting [2]); 2740 nM on AR (setting [3]); 2960 nM at AR (setting [4]); 3360 nM at AR (setting [5]); 2780 nM on AR (setting [6]).

Consider `CC(C)(c1ccc(OC[C@H](O)CO)cc1)c1ccc(OC[C@H](O)CCl)c(Cl)c1` [Compound 10d, (R)-3-(4-(2-(3-chloro-4-((S)-3-chloro-2-hydroxypropoxy)phenyl)propan-2-yl)phenoxy)propane-1,2-diol], for which the IC50 at AR (setting [2]) came to 2530 nM; on AR (setting [3]), 2300 nM; on AR (setting [4]), 2810 nM; on AR (setting [5]) it was 2840 nM; at AR (setting [6]) it was 2620 nM.

Turning to `CC(C)(c1ccc(OC[C@H](O)CO)cc1)c1ccc(OC[C@H](O)CCl)c(F)c1` [Compound 11d, (R)-3-(4-(2-(4-((S)-3-chloro-2-hydroxypropoxy)-3-fluorophenyl)propan-2-yl)phenoxy)propane-1,2-diol], the IC50 on AR (setting [2]) turned out to be 5950 nM; on AR (setting [3]), 3600 nM; on AR (setting [4]), 7330 nM; on AR (setting [5]), 5400 nM; on AR (setting [6]) it was 5570 nM.

Values taken from patent US9375496B2, “Halogenated compounds for cancer imaging and treatment and methods for their use” (The University of British Columbia, priority 2013, dated 2016).
